Data as given in patent publication US20250339569A1, “CARBONIC ANHYDRASE IX LIGANDS” (priority 2021, published 2025).
Read-outs that look alike come from different tables or passages of the source.

Experiments:
[1] = Biodistribution study (SPECT/CT) in SK-RC-52 tumor-bearing mice with or without gelofusine; format: in vivo, NMRI nude mice; details: female, NMRI nude, mouse, in vivo, iv, total radioactivity
Experimental: The effect on tumor uptake of prior injection of gelofusine for kidney protection was investigated in mice bearing the SK-RC-52 tumor. Biodistribution was evaluated using in vivo SPECT/CT imaging. Prior to the in vivo study the compounds (ligands) were initially radiolabeled with In-111 and the stability of radiolabeled compounds was evaluated in buffer at three different timepoints.
The study was performed in female NMRI nude mice (approximately 6 weeks of age) from Janvier Labs, France, housed up to 5 mice per cage.
The column was washed with 2 mL water, and then the final product was eluted from the column in EtOH solution (50%) • The sample was formulated in PBS to the final concentration of 150 MBq/mL and 5 nmol/mL.
SK-RC-52 cells were cultured in RPMI 1640 with GlutaMax-I (Thermo Fisher Scientific #61870044) supplemented with 10% fetal bovine serum+1% penicillin/streptomycin, harvested, washed twice in RPMI 1640 and resuspended at 2×10^7 cells/mL in RPMI 1640. HT-29 cells were cultured in McCoy's 5a Medium Modified (Sigma #M9309). For inoculation of HT-29 cells, cells were harvested, washed twice in PBS and resuspended at 5×10^7 cells/mL in PBS. Cells were kept on ice until inoculation.
Animals were anaesthetized (isoflurane, 2-4% in ambient air supplemented with 100% 02) prior to tumor inoculation. The tumor cells (100 μL suspension of either SK-RC-52 cells (2×10^6 cells/animal) or HT-29 cells (5×10^6 cells/animal)) were subcutaneously inoculated in the right flank using a 1-mL syringe equipped with a 27 G needle. Tumor growth and animal weight were measured twice per week. Tumor size was measured by caliper and the volume was estimated using the following formula: 0.52×(length×width^2). When tumor sizes reached 150-250 mm^3, animals were randomized into groups (n=3) of similar average tumor volume and body weight.
Animals were injected intravenously with In-111-labeled compounds (single bolus, 22.3-31.2 MBq, ˜1 nmol ligand, injection volume: 100 μL) in the lateral tail vein using a 29 G syringe.
CT was performed with helical scan, 300 ms exposure, reconstruction resolution of 250 μm. SPECT was performed with multi-pinhole scan and a 30 s frame time. For the quantification of the radioactivity uptake, regions of interests (ROIs) were drawn over the tumor, kidney, liver, and heart (estimate of blood) identified on the images. Uptake was expressed as percent of injected dose per gram tissue (% ID/g).

[2] = Pharmacokinetic characterization in healthy mice; format: in vivo, CD-1 mice; details: male, CD-1, plasma, iv, mouse; for clearance: read-out: Clearance (CL); for half-life: read-out: terminal elimination half-life (converted); for Vd: read-out: volume of distribution (Vd)
Experimental: (§1) The pharmacokinetics of DPI-4452 after a single intravenous (i.v.) dose were investigated in healthy mice. […] Plasma and urine samples collected after dosing were analyzed using a LC-HRMS (liquid chromatography coupled with high-resolution mass spectrometry) assay method. Concentration values were used for pharmacokinetic calculations.
Male CD-1 mice (3 animals per time point and per dose level; overall, 28.2-37.6 g body weight) were administered intravenously in the tail vein in a 2 mL/kg dosing volume. Blood samples were collected in K2EDTA tubes at 5 min, 15 min, 30 min, 1 h, 2 h, 4 h, 8 h, and urine was collected over 8 hours post dose. The blood samples were kept on wet ice until plasma separation by centrifugation at room temperature; 10 min; 2500 G, which was performed within 60 min after sampling. The plasma samples were transferred into plastic tubes, frozen and stored at −80° C. until analysis.
Plasma and urine samples were analyzed by LC-HRMS after solid phase extraction, using a stable isotope-labeled internal standard (^13C6, ^15N-DPI-4452). Chromatographic separation was run on a Waters Acquity HSS T3 C18 2.1×50 mm, 1.8 μm column. Detection was achieved on a Sciex API6600 TOF mass spectrometer. The lower limit of quantification was 1.00 ng/mL in plasma and urine.
(§2) The non-compartmental (NCA) pharmacokinetic analysis of plasma concentration data was conducted using Phoenix 64 WinNonlin (Build 8.3.3.33) software. Nominal doses were used for all animals. The terminal phase half-life (T1/2) was calculated by least-squares regression analysis of the terminal linear part of the log concentration-time curve. The area under the plasma concentration-time curve (AUC) was determined with the linear trapezoidal rule for increasing values and log trapezoidal rule for decreasing values up to the last measurable concentration.

[3] = Pharmacokinetic characterization in healthy dogs; format: in vivo, beagle dogs; details: dog; for AUC(0-inf) / Cmax / clearance / half-life / Vd / CL renal: male, beagle, iv; for AUC(0-inf) / Cmax / clearance / half-life / Vd: plasma; for half-life: read-out: terminal half-life (T1/2) (converted); for Vd: read-out: volume of distribution; for CL renal: urine and plasma, read-out: estimated renal clearance
Experimental: as §1, with “dose was” for “dose were”, “healthy dogs.” for “healthy mice.”
DPI 4452 was formulated in 0.1 M HEPES pH 7.0 at the final concentrations of 0.05 and 0.4 mg/mL for dosing at 0.1 and 0.8 mg/kg, respectively. Male beagle dogs (3 animals per dose level; overall 8.9 to 12.4 kg body weight) were administered intravenously (bolus) in a 2 mL/kg dosing volume. Blood samples were collected in K2EDTA tubes at 5 min, 15 min, 30 min, 1 h, 2 h, 4 h, 6 h, 24 h, and urine was collected over 24 hours post dose. The blood samples were kept on wet ice until plasma separation by centrifugation within 60 min after sampling. The plasma samples were transferred into plastic tubes, frozen and stored at −80° C. until analysis.
Plasma and urine samples were analyzed by […] after solid phase extraction, using DPI-4501 as internal standard. Chromatographic separation was run on a Waters Acquity HSS T3 C18 2.1×50 mm, 1.8 μm column. Detection was achieved on a Sciex API6600 TOF mass spectrometer. The lower limit of quantification was 2.00 ng/mL in urine and plasma.
as §2, with “NCA” for “non-compartmental (NCA)”, “Phoenix” for “Phoenix 64”, “6.3” for “(Build 8.3.3.33)”

Work on `CC(C)C[C@@H]1NC(=O)[C@H](Cc2cccc(NC(=O)CCCS(N)(=O)=O)c2)NC(=O)[C@H](CC(=O)O)NC(=O)[C@H]2CCCN2C(=O)[C@H](CCC(=O)O)NC(=O)[C@@H](NC(=O)[C@H](CCC(N)=O)NC(=O)CN2CCN(C(=O)CN3CCN(CC(=O)O)CCN(CC(=O)O)CCN(CC(=O)O)CC3)CC2)CSCc2cccc(c2)CSC[C@@H](C(N)=O)NC(=O)[C@H](CO)NC(=O)[C@H](Cc2c[nH]c3ccccc23)NC(=O)[C@H]([C@@H](C)O)NC1=O` [DPI-4452, DOTA-PPAc-Gln-[Cys(3MeBn)-Glu-pro-Asp-Af3(Cpsu)-Leu-Thr-Trp-Ser-Cys]-NH2] yielded a tissue uptake at 4 h ([1]; SK-RC-52, In-111-labeled, 4% gelofusine before, Mean ± SEM, read-out: Blood uptake at 4 h p.i.) of 0.03 ± 0.01 %ID/g, a tissue uptake at 24 h ([1]; SK-RC-52, In-111-labeled, 4% gelofusine before, Mean ± SEM, read-out: Kidney uptake at 24 h p.i.) of 0.73 ± 0.2 %ID/g and a tissue uptake at 4 h ([1]; SK-RC-52, In-111-labeled, 4% gelofusine before, Mean ± SEM, read-out: Liver uptake at 4 h p.i.) of 0.12 ± 0.01 %ID/g. It also gave a tissue uptake ([1]; SK-RC-52, In-111-labeled, 4% gelofusine before, Mean ± SEM, read-out: Peak Kidney uptake) of 1.84 ± 0.14 %ID/g, a tissue uptake at 4 h ([1]; SK-RC-52, In-111-labeled, no gelofusine, Mean ± SEM, read-out: Blood uptake at 4 h p.i.) of 0.05 ± 0.01 %ID/g and a tissue uptake at 24 h ([1]; SK-RC-52, In-111-labeled, no gelofusine, Mean ± SEM, read-out: Kidney uptake at 24 h p.i.) of 0.95 ± 0.05 %ID/g. It also gave a tissue uptake at 4 h ([1]; SK-RC-52, In-111-labeled, no gelofusine, Mean ± SEM, read-out: Liver uptake at 4 h p.i.) of 0.18 ± 0.04 %ID/g, a tissue uptake ([1]; SK-RC-52 tumor mice, In-111-labeled, 4% gelofusine immediately before, Mean ± SEM, N=3, read-out: Peak Tumor Uptake) of 13.4 ± 0.39 %ID/g and an AUC(0-inf) ([2]; i.v. 0.7 mg/kg) of 424 ng·h/mL. It also gave a clearance ([2]; i.v. 0.7 mg/kg) of 27.5 mL/min/kg, a half-life ([2]; i.v. 0.7 mg/kg) of 16.8 min and a Vd ([2]; i.v. 0.7 mg/kg) of 0.408 L/kg. For the same molecule, the AUC(0-inf) ([2]; i.v. 5.5 mg/kg) was 2820 ng·h/mL, the clearance ([2]; i.v. 5.5 mg/kg) was 32.5 mL/min/kg and the half-life ([2]; i.v. 5.5 mg/kg) was 27.9 min. The Vd ([2]; i.v. 5.5 mg/kg) was 0.455 L/kg, the “time up to which plasma concentration was quantifiable” value ([3]; i.v. 0.1 mg/kg) was “up to 2 h” and the “time up to which plasma concentration was quantifiable” value ([3]; i.v. 0.8 mg/kg) was at most 4 h. For the same molecule, the AUC(0-inf) ([3]; i.v. 0.1 mg/kg) was 133 ng·h/mL, the Cmax ([3]; i.v. 0.1 mg/kg) was 377 ng/mL and the clearance ([3]; i.v. 0.1 mg/kg) was 12.7 mL/min/kg. It also gave a half-life ([3]; i.v. 0.1 mg/kg) of 22.8 min, a Vd ([3]; i.v. 0.1 mg/kg) of 0.26 L/kg and an AUC(0-inf) ([3]; i.v. 0.8 mg/kg) of 1760 ng·h/mL. For the same molecule, the Cmax ([3]; i.v. 0.8 mg/kg) was 4430 ng/mL, the clearance ([3]; i.v. 0.8 mg/kg) was 7.6 mL/min/kg and the half-life ([3]; i.v. 0.8 mg/kg) was 28.8 min. For the same molecule, the Vd ([3]; i.v. 0.8 mg/kg) was 0.19 L/kg, the CL renal ([3]; i.v. 0.1 mg/kg) was 2.06 mL/h/kg and the CL renal ([3]; i.v. 0.8 mg/kg) was 0.684 mL/h/kg.

`CC(C)C[C@@H]1NC(=O)[C@H](Cc2cccc(NC(=O)CCCS(N)(=O)=O)c2)NC(=O)[C@H](CC(=O)O)NC(=O)[C@H]2CCCN2C(=O)[C@H](CCC(=O)O)NC(=O)[C@@H](NC(=O)[C@H](CCC(N)=O)NC(=O)CN2CCN(C(=O)CN3CCN(CC(=O)O)CCN(CC(=O)O)CCN(CC(=O)O)CC3)CC2)CSCc2cccc(c2)CSC[C@@H](C(N)=O)NC(=O)[C@H](CO)NC(=O)[C@H](Cc2c[nH]c3ccccc23)NC(=O)[C@H]([C@@H](C)O)NC1=O` [[^111In]In-DPI-4452, metal not drawn] showed a tissue uptake ([1]; SK-RC-52 model, with gelofusine, 1-2 hours post injection, read-out: peak kidney uptake) of 1.84 ± 0.14 %ID/g, a tissue uptake at 24 h ([1]; SK-RC-52 model, with gelofusine, 24 hours post injection, read-out: kidney uptake) of 0.73 ± 0.02 %ID/g and a tissue uptake at 24 h ([1]; SK-RC-52 model, without gelofusine, 24 hours post injection, read-out: kidney uptake) of 0.95 ± 0.05 %ID/g. For the same molecule, the tissue uptake ([1]; SK-RC-52 tumor, 4% gelofusine immediately before, peak at 4 hours (DPI-4452) or 1 hour (DPI-4501), mean±SEM, read-out: peak tumor uptake) was 13.4 ± 0.39 %ID/g and the tissue uptake ([1]; summary over tumor models, read-out: peak tumor uptake, typical (conclusion)) was 7 %ID/g.
